Assay results from ChEMBL document CHEMBL1201862, “PubChem BioAssay data set” (2004).
The source made the active and inactive calls.

Columns and labels:
[1] = Luminescence Cell-Based Dose Response HTS to Identify Activators of Luciferase Translation or Activity in H4 […] Cells. [Related pubchem assays: 1829 (Project Summary), 1814 (Primary HTS)]; assay type: functional
H4 = assay: Luminescence Cell-Based Dose Response HTS to Identify Activators of 5'UTR Stem-Loop Driven Prion Protein mRNA Translation in H4 Neuroglioblastoma Cells. [Related pubchem assays: 1829 (Project Summary), 1814 (Primary HTS)]; assay type: functional; details: Homo sapiens
[2] = Luminescence Cell-Based Dose Confirmation HTS to Identify Activators of 5'UTR Stem-Loop Driven Alpha-Synuclein mRNA Translation in H4 Neuroglioblastoma Cells. [Related pubchem assays: 1829 (Project Summary), 1814 (Primary HTS)]; assay type: functional
[3] = alpha-synuclein stem-loop luciferase translation blockers – H4 neuroglioma cells, luminescence, confirmation (AID 1988); assay type: functional, cell-based
[4] = Luminescence Cell-Based Dose Response HTS to Identify Inhibitors of 5'UTR Stem-Loop Driven Prion Protein mRNA Translation in H4 Neuroglioblastoma Cells. [Related pubchem assays: 1827 (Project Summary), 1813 (Primary HTS)]; assay type: functional
[5] = luciferase reporter signal suppression in cells – H4 neuroglioma cells, luminescence, dose response (AID 1990); assay type: functional, cell-based
Cytochrome P450 1A2 = target: T1, Cytochrome P450 1A2 (Homo sapiens, UniProt P05177);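 further: PubChem cytochrome P450 panel assay, CYP1A2 panel member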
T1 sequence (P05177 whole entry): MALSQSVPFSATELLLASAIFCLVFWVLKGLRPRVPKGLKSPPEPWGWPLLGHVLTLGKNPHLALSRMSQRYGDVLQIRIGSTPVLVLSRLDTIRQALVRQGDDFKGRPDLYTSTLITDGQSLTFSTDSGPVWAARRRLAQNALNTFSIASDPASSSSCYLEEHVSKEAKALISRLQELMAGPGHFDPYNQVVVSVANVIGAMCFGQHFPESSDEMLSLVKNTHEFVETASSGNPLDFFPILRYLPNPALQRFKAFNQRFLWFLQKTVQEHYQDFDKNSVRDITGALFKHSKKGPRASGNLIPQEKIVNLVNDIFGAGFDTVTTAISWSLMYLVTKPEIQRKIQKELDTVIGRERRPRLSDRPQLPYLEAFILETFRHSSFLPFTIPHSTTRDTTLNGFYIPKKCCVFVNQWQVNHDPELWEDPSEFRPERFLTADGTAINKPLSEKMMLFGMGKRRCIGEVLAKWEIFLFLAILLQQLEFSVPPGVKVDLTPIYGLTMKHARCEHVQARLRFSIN

Cytochrome P450 2C19 = Cytochrome P450 2C19 (Homo sapiens, UniProt P33261); assay: Cytochrome panel assay with activity outcomes. Panel member name: p450-cyp2c19 Compounds with AC50 equal or less than 10 uM are considered active; assay type: functional
Chain of Cytochrome P450 2C19 (P33261 whole entry): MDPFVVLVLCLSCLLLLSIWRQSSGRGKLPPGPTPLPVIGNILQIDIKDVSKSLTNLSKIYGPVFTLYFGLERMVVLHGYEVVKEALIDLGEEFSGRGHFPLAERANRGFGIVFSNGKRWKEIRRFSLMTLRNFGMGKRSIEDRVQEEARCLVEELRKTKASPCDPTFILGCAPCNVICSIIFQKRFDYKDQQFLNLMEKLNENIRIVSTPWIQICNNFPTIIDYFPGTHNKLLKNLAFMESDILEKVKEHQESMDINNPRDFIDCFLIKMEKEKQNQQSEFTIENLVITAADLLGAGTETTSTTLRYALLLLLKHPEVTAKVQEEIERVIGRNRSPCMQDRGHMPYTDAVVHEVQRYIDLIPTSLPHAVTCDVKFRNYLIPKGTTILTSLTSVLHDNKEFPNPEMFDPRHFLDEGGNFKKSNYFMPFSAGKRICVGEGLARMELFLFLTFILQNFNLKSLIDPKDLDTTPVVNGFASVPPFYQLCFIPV

Streptokinase A = target: T2, Streptokinase A (Streptococcus pyogenes serotype M1, UniProt P10520); assay: viability-normalized secreted streptokinase activity reduction – plasminogen activation absorbance, OD405, dose response (AID 1914); assay type: functional, Streptococcus pyogenes M1 GAS;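 further: secreted streptokinase activity via plasminogen activation per viability signal from cell pellet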
T2 sequence (P10520 whole entry): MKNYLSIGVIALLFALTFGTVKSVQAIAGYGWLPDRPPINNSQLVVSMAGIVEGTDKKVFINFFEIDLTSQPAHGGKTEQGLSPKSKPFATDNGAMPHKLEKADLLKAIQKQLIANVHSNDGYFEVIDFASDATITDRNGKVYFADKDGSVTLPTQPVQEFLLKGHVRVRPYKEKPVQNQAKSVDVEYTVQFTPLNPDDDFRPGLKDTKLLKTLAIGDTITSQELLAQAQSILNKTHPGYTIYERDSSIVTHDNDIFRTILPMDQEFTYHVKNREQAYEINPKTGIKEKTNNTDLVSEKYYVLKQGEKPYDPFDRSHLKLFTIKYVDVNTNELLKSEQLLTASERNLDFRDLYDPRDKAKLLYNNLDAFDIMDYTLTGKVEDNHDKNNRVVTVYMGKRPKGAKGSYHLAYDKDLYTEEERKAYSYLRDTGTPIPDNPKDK

INS1 = assay: INS-1E survival protection against cytokine death – cell-based, luminescence, retest, dose response (AID 449756); assay type: functional; details: Rattus norvegicus;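 further: cell death triggered by IL-1 beta plus TNF-alpha plus IFN-gamma mixture; protective hits raise ATP signal compared with cytokine alone wells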
[6] = target: T3, Corticotropin-releasing factor receptor 2/Corticotropin-releasing factor-binding protein (Homo sapiens, UniProt P24387+Q13324); assay: activators of CRF receptor 2 with binding protein – uHTS hits, confirmation (AID 602473); assay type: functional; details: read-out: EC50_Mean
T3 sequence (Q13324 whole entry): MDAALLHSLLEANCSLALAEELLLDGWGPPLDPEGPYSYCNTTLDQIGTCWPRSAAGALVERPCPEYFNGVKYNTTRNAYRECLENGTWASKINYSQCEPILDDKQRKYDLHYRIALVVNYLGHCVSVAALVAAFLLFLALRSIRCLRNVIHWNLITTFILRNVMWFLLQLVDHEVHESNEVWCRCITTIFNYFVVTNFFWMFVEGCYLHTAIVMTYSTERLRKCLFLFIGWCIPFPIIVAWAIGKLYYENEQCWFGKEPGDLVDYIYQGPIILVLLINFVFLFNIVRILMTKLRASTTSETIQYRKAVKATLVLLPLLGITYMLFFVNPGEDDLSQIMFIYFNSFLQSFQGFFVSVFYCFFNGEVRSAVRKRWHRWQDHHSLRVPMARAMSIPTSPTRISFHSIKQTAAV
T3 sequence (P24387 whole entry): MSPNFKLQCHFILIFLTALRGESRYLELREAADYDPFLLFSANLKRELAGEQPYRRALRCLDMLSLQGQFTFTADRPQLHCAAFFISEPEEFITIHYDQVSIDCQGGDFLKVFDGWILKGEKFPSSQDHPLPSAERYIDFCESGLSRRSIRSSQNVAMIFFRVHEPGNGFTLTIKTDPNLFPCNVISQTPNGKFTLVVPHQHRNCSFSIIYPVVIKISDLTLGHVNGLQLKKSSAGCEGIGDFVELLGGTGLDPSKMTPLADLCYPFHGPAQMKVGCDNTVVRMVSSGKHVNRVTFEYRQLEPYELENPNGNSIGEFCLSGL

[7] = system: Streptococcus sp. 'group A'; assay: Streptococcus pyogenes SK(-)GAS viability under kanamycin – luminescence, BacTiterGlo, confirmation, counter-screen for streptokinase expression inhibitor project, dose response (AID 1900); assay type: functional, organism-based
Streptococcus = assay: GAS UMAA2166 growth inhibition – luminescence, BacTiterGlo, counter-screen for streptokinase expression inhibitor project, dose response (AID 1915); assay type: functional, organism-based;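 further: potency for reduction of bacterial viability or growth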

For `O=c1c(-c2ccc(Cl)cc2)cnc2n1CCS2`, the EC50 [1] was 11.3 µM (active), the EC50 (H4) was 13.7 µM (active) and the EC50 [2] was 13 µM (active).
For `CCOC(=O)CN1C(=O)C(Sc2n[nH]c(-c3ccc(C)cc3)n2)CCc2ccccc21` (centres undefined), the EC50 [3] was > 120 µM (not active), the EC50 [4] was > 120 µM (not active) and the EC50 [5] was 19.1 µM (active).
For `O=c1c(-c2ccc(F)cc2)nc2cnc(N3CCOCC3)nc2n1CCc1ccccc1`, the AC50 (Cytochrome P450 1A2) was 25.1 µM (inconclusive) and the AC50 (Cytochrome P450 2C19; read-out: AC50) was 39.8 µM (inconclusive).
With `C[C@]1(C(=O)O)[C@@H]2CC[C@@H](O2)[C@@]1(C)C(=O)O` the AC50 (Cytochrome P450 2C19) was “inconclusive”.
With `Cc1ccc(Cn2nnc3c(=O)[nH]c(C4CCN(S(=O)(=O)c5cc(C)ccc5C)CC4)nc32)cc1` the EC50 (Streptokinase A) was 21.4 µM (active).
For `CC1CN(CC(O)COC(c2ccc(Cl)cc2)c2ccc(Cl)cc2)CC(C)O1` (centres undefined), the AC50 (INS1) was 11.9 µM (active).
For `Cc1sc2ncnc(Sc3nc4ccccc4s3)c2c1C`, the EC50 [1] was > 120 µM (not active), the EC50 (H4) was > 120 µM (not active) and the EC50 [2] was > 120 µM (not active).
With `CSc1ccc(S(=O)(=O)Nc2ccc(N3CCOCC3)c(Cl)c2)cc1` the AC50 (INS1) was 29.8 µM (active).
With `NC1=C(c2nc3ccccc3[nH]2)C(=O)CN1c1ccccc1` the EC50 [1] was 79.8 µM (active), the EC50 (H4) was 6.44 µM (active) and the EC50 [2] was > 120 µM (not active).
In the case of `CCOc1ccc(NS(=O)(=O)c2ccc(C(=O)NCC3(N(C)C)CCCCC3)cc2)cc1`, the EC50 [6] is reported as 8.72 µM (active).
For `CC(Oc1ccc(C(=O)c2ccccc2)cc1)C(=O)Nc1ccc(S(N)(=O)=O)cc1` (centres undefined), the EC50 [6] was 8.21 µM (active).
In the case of `CCN(CC)CCN1C(=O)c2oc3ccccc3c(=O)c2C1c1ccc(F)cc1` (centres undefined), the EC50 [1] is reported as 14.1 µM (active), the EC50 (H4) is reported as 22.4 µM (active) and the EC50 [2] is reported as > 120 µM (not active).
In the case of `Cc1ccccc1NC(S)=NN1CCN(C)CC1`, the AC50 (Cytochrome P450 2C19; read-out: AC50) is reported as 25.1 µM (inconclusive).
For `CC(=O)C(C(C)=O)c1cc(NS(=O)(=O)c2ccccc2)ccc1NS(=O)(=O)c1ccccc1`, the EC50 [6] was 9.35 µM (active).
For `CCOC(=O)c1cc([N+](=O)[O-])sc1NC(=O)c1ccc(S(=O)(=O)N2CC3(C)CC2CC(C)(C)C3)cc1` (centres undefined), the EC50 [6] was 0.793 µM (active).
With `O=C(Cn1cc(C(F)(F)F)cc(Cl)c1=O)NCc1ccccc1` the EC50 [1] was 31.6 µM (active), the EC50 (H4) was 18.5 µM (active) and the EC50 [2] was 84.7 µM (active).
For `Cc1nnc(SCC(=O)NC(=O)Nc2ccc3c(c2)OCCO3)n1N`, the EC50 [1] was 32.8 µM (active), the EC50 (H4) was > 120 µM (not active) and the EC50 [2] was 11.9 µM (active).
In the case of `Brc1ccccc1C1=Nn2c(nnc2-c2ccccc2)SC1`, the EC50 [3] is reported as 38.4 µM (active), the EC50 [4] is reported as > 120 µM (not active) and the EC50 [5] is reported as 15.5 µM (active).
For `CN(C)C=O.COCCn1c(SCc2nc(O)c3c(C)c(C(=O)OC)sc3n2)nc2ccccc21`, the EC50 [7] was 6.06 µM (active), the AC50 (Cytochrome P450 1A2) was 25.1 µM (inconclusive) and the EC50 (Streptokinase A) was > 150 µM (not active). The EC50 (Streptococcus) was 101 µM (active).
